Assay results published in ChEMBL document CHEMBL3885861, “Open TG-GATES”.

Species: Rattus norvegicus
Assay: Open TG-GATES - Regimen: Single
Format: toxicity, organism-based, Sprague-Dawley
Set-up: regimen Single, gender Male, age 6 weeks
Conditions: in vivo, po, 0 mg/kg, route gavage, dose level Control; for APTT / Bas / Eos / Fbg / Hb / Ht / Lym / MCH / MCHC / MCV / Mono / Neu / PT / Plat / RBC / Ret / WBC: tissue Blood; for KIDNEY_L / KIDNEY_R / KIDNEY_TOTAL: tissue Kidney; for LIVER: tissue Liver; for A/G / ALP / ALT / AST / BUN / CRE / Ca / Cl / DBIL / GLC / IP / K / LDH / Na / PL / RALB / TBIL / TC / TG / TP / gamma-GTP: tissue Plasma

SMILES: NC(=O)N/N=C/c1ccc([N+](=O)[O-])o1 [NITROFURAZONE]
- TERMINAL_BW (3 h): 181.6 g
- APTT (3 h): 15.7 s
- Bas (3 h): 0%
- Eos (3 h): 0.6%
- Fbg (3 h): 250 mg/dL
- Hb (3 h): 12.7 g/dL
- Ht (3 h): 39.7%
- Lym (3 h): 79%
- MCH (3 h): 21.6 pg
- MCHC (3 h): 32%
- MCV (3 h): 67.7 fL
- Mono (3 h): 2.8%
- Neu (3 h): 17%
- PT (3 h): 14.7 s
- Plat (3 h): 114.3 x10_4/uL
- RBC (3 h): 586.4 x10_4/ul
- Ret (3 h): 10.9%
- WBC (3 h): 77.6 x10_2/uL
- KIDNEY_L (3 h): 0.8 g
- KIDNEY_R (3 h): 0.8 g
- KIDNEY_TOTAL (3 h): 1.6 g
- LIVER (3 h): 8.2 g
- A/G (3 h): 0.9
- ALP (3 h): 1508.2 IU/L
- ALT (3 h): 45.4 IU/L
- AST (3 h): 78 IU/L
- BUN (3 h): 9.8 mg/dL
- CRE (3 h): 0.2 mg/dL
- Ca (3 h): 11.3 mg/dL
- Cl (3 h): 104.8 meq/L
- DBIL (3 h): 0.012 mg/dL
- GLC (3 h): 179.2 mg/dL
- IP (3 h): 9.6 mg/dL
- K (3 h): 4.1 meq/L
- LDH (3 h): 49.8 IU/L
- Na (3 h): 141 meq/L
- PL (3 h): 141.8 mg/dL
- RALB (3 h): 2.4 g/dL
- TBIL (3 h): 0.056 mg/dL
- TC (3 h): 80.4 mg/dL
- TG (3 h): 54.6 mg/dL
- TP (3 h): 5.2 g/dL
- gamma-GTP (3 h): 1.2 IU/L
- TERMINAL_BW (6 h): 180.8 g
- APTT (6 h): 16.4 s
- Bas (6 h): 0.2%
- Eos (6 h): 0.6%
- Fbg (6 h): 266.6 mg/dL
- Hb (6 h): 12.7 g/dL
- Ht (6 h): 39.4%
- Lym (6 h): 73.2%
- MCH (6 h): 22.1 pg
- MCHC (6 h): 32.2%
- MCV (6 h): 68.6 fL
- Mono (6 h): 3%
- Neu (6 h): 21.8%
- PT (6 h): 14.6 s
- Plat (6 h): 118.4 x10_4/uL
- RBC (6 h): 576.2 x10_4/ul
- Ret (6 h): 11%
- WBC (6 h): 90.9 x10_2/uL
- KIDNEY_L (6 h): 0.8 g
- KIDNEY_R (6 h): 0.9 g
- KIDNEY_TOTAL (6 h): 1.7 g
- LIVER (6 h): 7.4 g
- A/G (6 h): 0.9
- ALP (6 h): 1461 IU/L
- ALT (6 h): 44.4 IU/L
- AST (6 h): 77.2 IU/L
- BUN (6 h): 8 mg/dL
- CRE (6 h): 0.2 mg/dL
- Ca (6 h): 11 mg/dL
- Cl (6 h): 105 meq/L
- DBIL (6 h): 0.01 mg/dL
- GLC (6 h): 169.8 mg/dL
- IP (6 h): 10.3 mg/dL
- K (6 h): 4.2 meq/L
- LDH (6 h): 61.4 IU/L
- Na (6 h): 140.6 meq/L
- PL (6 h): 132.2 mg/dL
- RALB (6 h): 2.4 g/dL
- TBIL (6 h): 0.062 mg/dL
- TC (6 h): 78.2 mg/dL
- TG (6 h): 36.2 mg/dL
- TP (6 h): 5.2 g/dL
- gamma-GTP (6 h): 1 IU/L
- TERMINAL_BW (9 h): 179.5 g
- APTT (9 h): 15.7 s
- Bas (9 h): 0%
- Eos (9 h): 0.6%
- Fbg (9 h): 260 mg/dL
- Hb (9 h): 12.7 g/dL
- Ht (9 h): 39.8%
- Lym (9 h): 75%
- MCH (9 h): 21.6 pg
- MCHC (9 h): 32%
- MCV (9 h): 67.5 fL
- Mono (9 h): 2.4%
- Neu (9 h): 21.4%
- PT (9 h): 14.5 s
- Plat (9 h): 109.4 x10_4/uL
- RBC (9 h): 590.6 x10_4/ul
- Ret (9 h): 10.5%
- WBC (9 h): 64.3 x10_2/uL
- KIDNEY_L (9 h): 0.8 g
- KIDNEY_R (9 h): 0.8 g
- KIDNEY_TOTAL (9 h): 1.6 g
- LIVER (9 h): 7.1 g
- A/G (9 h): 0.9
- ALP (9 h): 1214.2 IU/L
- ALT (9 h): 47.8 IU/L
- AST (9 h): 79.4 IU/L
- BUN (9 h): 8.8 mg/dL
- CRE (9 h): 0.2 mg/dL
- Ca (9 h): 11 mg/dL
- Cl (9 h): 105 meq/L
- DBIL (9 h): 0.012 mg/dL
- GLC (9 h): 169 mg/dL
- IP (9 h): 10.6 mg/dL
- K (9 h): 3.9 meq/L
- LDH (9 h): 55.2 IU/L
- Na (9 h): 142 meq/L
- PL (9 h): 139.4 mg/dL
- RALB (9 h): 2.4 g/dL
- TBIL (9 h): 0.062 mg/dL
- TC (9 h): 85.2 mg/dL
- TG (9 h): 25 mg/dL
- TP (9 h): 5.2 g/dL
- gamma-GTP (9 h): 1.4 IU/L
- TERMINAL_BW (24 h): 194.2 g
- APTT (24 h): 17.5 s
- Bas (24 h): 0%
- Eos (24 h): 0.8%
- Fbg (24 h): 246.6 mg/dL
- Hb (24 h): 13 g/dL
- Ht (24 h): 40.1%
- Lym (24 h): 76.8%
- MCH (24 h): 22 pg
- MCHC (24 h): 32.4%
- MCV (24 h): 67.8 fL
- Mono (24 h): 3.2%
- Neu (24 h): 18.6%
- PT (24 h): 14.8 s
- Plat (24 h): 111.2 x10_4/uL
- RBC (24 h): 592.4 x10_4/ul
- Ret (24 h): 9.7%
- WBC (24 h): 96.7 x10_2/uL
- KIDNEY_L (24 h): 0.8 g
- KIDNEY_R (24 h): 0.9 g
- KIDNEY_TOTAL (24 h): 1.7 g
- LIVER (24 h): 9 g
- A/G (24 h): 0.9
- ALP (24 h): 1711.4 IU/L
- ALT (24 h): 48.4 IU/L
- AST (24 h): 74.4 IU/L
- BUN (24 h): 14.8 mg/dL
- CRE (24 h): 0.2 mg/dL
- Ca (24 h): 11.3 mg/dL
- Cl (24 h): 104.8 meq/L
- DBIL (24 h): 0.012 mg/dL
- GLC (24 h): 177.6 mg/dL
- IP (24 h): 8 mg/dL
- K (24 h): 3.7 meq/L
- LDH (24 h): 61.2 IU/L
- Na (24 h): 142 meq/L
- PL (24 h): 149.2 mg/dL
- RALB (24 h): 2.5 g/dL
- TBIL (24 h): 0.044 mg/dL
- TC (24 h): 82.2 mg/dL
- TG (24 h): 72.4 mg/dL
- TP (24 h): 5.4 g/dL
- gamma-GTP (24 h): 1 IU/L
